Assay results as given in US11261222B2, “Transdermal peptide with nuclear localization ability and use thereof” (SOOCHOW UNIVERSITY, priority 2017, dated 2022).
Where a SMILES comes first, the peptide text is derived from it. The star is where a group is joined. FITC = O=C1OC2(c3ccc(O)cc3Oc3cc(O)ccc32)c2ccc(NC(=S)*)cc21

Experiments:
[1] = isoelectric point of the transdermal peptide; type: physicochemical
skin of SD rats = assay: transdermal penetration effect on back skin of SD rats, fluorescence microscopy of skin sections; type: in vivo; conditions: 50 μL of 500 μmol/L FITC-labeled peptide solution applied on back skin, three hours
Experimental: The experiments were performed using 8-week old SD rats (body weight 250 g). The back of SD rats was shaved, and the FITC-labeled peptide and control peptide prepared in Example 1 were each dissolved in a phosphate buffer (PBS, pH=7.4) to prepare a solution having a concentration of 500 μmol/L. The SD rats were divided into three groups, including: 1) a control group, in which no polypeptide solution was applied on the back; 2) a control group, in which the peptide as shown in SEQ ID NO: 3 was applied on the dorsal epidermis of rats; and 3) a treatment group, in which the peptide as shown in SEQ ID NO: 1 was applied on the back skin of rats. The rats in Groups 2) and 3) were each applied with 50 μL of the polypeptide solution. After three hours, the polypeptide in the applied area was washed off; the SD rats were sacrificed, and the skin applied with the polypeptide was taken, frozen, sectioned, and then observed under a fluorescence microscope.

Compound: transdermal peptide with a nuclear localization ability: transdermal peptide with amino acid sequence as shown in SEQ ID NO: 1, enters eukaryotic cells autonomously (KKLFPKGVFTKELPSGKKYLR; Transdermal peptide)
- isoelectric point [1]: 10.92

Compound: CC[C@H](C)[C@H](NC(=O)[C@H](CC(=O)O)NC(=O)[C@H](CCCCN)NC(=O)[C@H](CO)NC(=O)[C@H](Cc1c[nH]c2ccccc12)NC(=O)[C@H](C)NC(=O)[C@H](CC(C)C)NC(=O)[C@H](Cc1c[nH]cn1)NC(=O)[C@H](CC(=O)O)NC(=O)[C@H](CCC(=O)O)NC(=O)[C@@H](NC(=O)[C@H](CO)NC(=O)[C@H](CC(=O)O)NC(=O)[C@@H](NC(=O)[C@H](CO)NC(=O)[C@H](CC(C)C)NC(=O)[C@H](C)NC(=O)[C@@H](NC(=S)Nc1ccc2c(c1)C(=O)OC21c2ccc(O)cc2Oc2cc(O)ccc21)[C@@H](C)CC)[C@@H](C)CC)C(C)C)C(=O)N[C@@H](CC(N)=O)C(=O)N[C@@H](C)C(=O)O [irrelevant control polypeptide, reference compound] ({FITC}-IALSIDSVEDHLAWSKDINA-OH)
- fluorescence in the dermal tissue of the skin (skin of SD rats): no green fluorescence in the dermal tissue

Compound: CC(C)C[C@H](NC(=O)[C@H](Cc1ccc(O)cc1)NC(=O)[C@H](CCCCN)NC(=O)[C@H](CCCCN)NC(=O)CNC(=O)[C@H](CO)NC(=O)[C@@H]1CCCN1C(=O)[C@H](CC(C)C)NC(=O)[C@H](CCC(=O)O)NC(=O)[C@H](CCCCN)NC(=O)[C@@H](NC(=O)[C@H](Cc1ccccc1)NC(=O)[C@@H](NC(=O)CNC(=O)[C@H](CCCCN)NC(=O)[C@@H]1CCCN1C(=O)[C@H](Cc1ccccc1)NC(=O)[C@H](CC(C)C)NC(=O)[C@H](CCCCN)NC(=O)[C@H](CCCCN)NC(=S)Nc1ccc2c(c1)C(=O)OC21c2ccc(O)cc2Oc2cc(O)ccc21)C(C)C)[C@@H](C)O)C(=O)N[C@@H](CCCNC(=N)N)C(=O)O [peptide of the present invention] ({FITC}-KKLFPKGVFTKELPSGKKYLR-OH)
- fluorescence in the dermal tissue of the skin (skin of SD rats): clearly observed in the skin appendages of the dermis
